pKi: −log10 of the molar value.
Biological target: T1, human histamine H4 receptor (Homo sapiens, UniProt Q9H3N8)
T1 construct: expressed in transfected cells; host or cells: SK-N-MC cells or COS7 cells, transiently transfected; cell membranes used
Assay: Binding assay on recombinant human histamine H4 receptor (3H-histamine displacement)
Details: competition binding with 3H-histamine; membranes of SK-N-MC or COS7 cells expressing human H4 receptor; Cheng-Prusoff, KD 5 nM, ligand 5 nM
Method in brief: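 Membranes from SK-N-MC or COS7 cells transiently transfected with human H4R, incubated with ^3H-histamine (5-70 nM) at room temperature for 45 min, nonspecific binding with 10,000 nM histamine. Filtration and scintillation counting; compound affinity from displacement of ^3H-ligand across varying concentrations.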

SMILES | pKi
Cc1cc(OCCOC2CCN(C)CC2)ccc1-c1nc2c(C)cc(Cl)cc2[nH]1 [Example 92, 6-Chloro-4-methyl-2-{2-methyl-4-[2-(1-methyl-piperidin-4-yloxy)-ethoxy]-phenyl}-1H-benzoimidazole] | 6.95
Cc1c(F)ccc2[nH]c(-c3cccc(OCCCCC4CCN(C)CC4)c3)nc12 [Example 95, 6-Fluoro-7-methyl-2-{3-[4-(1-methyl-piperidin-4-yl)-butoxy]-phenyl}-1H-benzoimidazole] | 8.40
Cc1cccc2[nH]c(-c3cccc(OCCCCC4CCN(C)CC4)c3)nc12 [Example 96, 7-Methyl-2-{3-[4-(1-methyl-piperidin-4-yl)-butoxy]-phenyl}-1H-benzoimidazole] | 9.00
Cc1ccc2[nH]c(-c3cccc(OCCCCC4CCN(C)CC4)c3)nc2c1C [Example 97, 6,7-Dimethyl-2-{3-[4-(1-methyl-piperidin-4-yl)-butoxy]-phenyl}-1H-benzoimidazole] | 7.60
Cc1cc(Cl)cc2[nH]c(-c3cccc(OCCCCC4CCN(C)CC4)c3)nc12 [Example 98, 5-Chloro-7-methyl-2-{3-[4-(1-methyl-piperidin-4-yl)-butoxy]-phenyl}-1H-benzoimidazole] | 7.55
Cc1cc(C)c2nc(-c3cccc(OCCCCC4CCN(C)CC4)c3C)[nH]c2c1 [Example 99, 5,7-Dimethyl-2-{2-methyl-3-[4-(1-methyl-piperidin-4-yl)-butoxy]-phenyl}-1H-benzoimidazole] | 7.42
Cc1c(OCCCCC2CCN(C)CC2)cccc1-c1nc2c(C)cc(Cl)cc2[nH]1 [Example 100, 5-Chloro-7-methyl-2-{2-methyl-3-[4-(1-methyl-piperidin-4-yl)-butoxy]-phenyl}-1H-benzoimidazole] | 7.39
Cc1c(OCCCCC2CCN(C)CC2)cccc1-c1nc2c(C)c(F)ccc2[nH]1 [Example 101, 6-Fluoro-7-methyl-2-{2-methyl-3-[4-(1-methyl-piperidin-4-yl)-butoxy]-phenyl}-1H-benzoimidazole] | 7.26
CN1CCC(CCCOc2ccc(-c3nc4c(Cl)cccc4[nH]3)cn2)CC1 [Example 108, 4-Chloro-2-{6-[3-(1-methyl-piperidin-4-yl)-propoxy]-pyridin-3-yl}-1H-benzoimidazole] | 7.51
Cc1cc(OCCCC2CCN(C)CC2)ncc1-c1nc2c(C)cccc2[nH]1 [Example 110, 4-Methyl-2-{4-methyl-6-[3-(1-methyl-piperidin-4-yl)-propoxy]-pyridin-3-yl}-1H-benzoimidazole] | 8.22
Cc1cc(OCCCC2CCN(C)CC2)ncc1-c1nc2c(C)c(F)ccc2[nH]1 [Example 111, 5-Fluoro-4-methyl-2-{4-methyl-6-[3-(1-methyl-piperidin-4-yl)-propoxy]-pyridin-3-yl}-1H-benzoimidazole] | 7.68
Cc1c(F)ccc2[nH]c(-c3cnc(OCCCC4CCN(C)CC4)cc3Cl)nc12 [Example 115, 2-{4-Chloro-6-[3-(1-methyl-piperidin-4-yl)-propoxy]-pyridin-3-yl}-5-fluoro-4-methyl-1H-benzoimidazole] | 8.40
Cc1cccc2[nH]c(-c3ccc(OCCCC4=CCN(C)CC4)nc3)nc12 [Example 122, 4-Methyl-2-{6-[3-(1-methyl-1,2,3,6-tetrahydro-pyridin-4-yl)-propoxy]-pyridin-3-yl}-1H-benzoimidazole] | 7.15
Cc1cc(Cl)cc2[nH]c(-c3ccc(OCCCC4=CCN(C)CC4)nc3)nc12 [Example 123, 6-Chloro-4-methyl-2-{6-[3-(1-methyl-1,2,3,6-tetrahydro-pyridin-4-yl)-propoxy]-pyridin-3-yl}-1H-benzoimidazole] | 7.17
Cc1ccc2[nH]c(-c3ccc(OCCCC4=CCN(C)CC4)nc3)nc2c1C [Example 124, 4,5-Dimethyl-2-{6-[3-(1-methyl-1,2,3,6-tetrahydro-pyridin-4-yl)-propoxy]-pyridin-3-yl}-1H-benzoimidazole] | 7.07

Now from value to molecule:

pKi | SMILES
7.14 | CCN1CCC(CCCOc2ccc(-c3nc4c(C)cc(Cl)cc4[nH]3)c(C)c2)CC1 [Example 90, 6-Chloro-2-{4-[3-(1-ethyl-piperidin-4-yl)-propoxy]-2-methyl-phenyl}-4-methyl-1H-benzoimidazole]
6.20 | Cc1cccc2[nH]c(-c3ccc(OCCN(C)C4CCN(C)CC4)cc3Cl)nc12 [Example 91, {2-[3-Chloro-4-(4-methyl-1H-benzoimidazol-2-yl)-phenoxy]-ethyl}-methyl-(1-methyl-piperidin-4-yl)-amine]
8.15 | Cc1cc(OCCCC2=CCN(C)CC2)ccc1-c1nc2c(C)cc(Cl)cc2[nH]1 [Example 93, 6-Chloro-4-methyl-2-{2-methyl-4-[3-(1-methyl-1,2,3,6-tetrahydro-pyridin-4-yl)-propoxy]-phenyl}-1H-benzoimidazole]
7.89 | Cc1cc(OCCCC2=CCN(C)CC2)ccc1-c1nc2c(C)c(F)ccc2[nH]1 [Example 94, 5-Fluoro-4-methyl-2-{2-methyl-4-[3-(1-methyl-1,2,3,6-tetrahydro-pyridin-4-yl)-propoxy]-phenyl}-1H-benzoimidazole]
6.49 | Cc1c(F)ccc2[nH]c(-c3cccc(OCCCOC4CCN(C)CC4)c3)nc12 [Example 102, 6-Fluoro-7-methyl-2-{3-[3-(1-methyl-piperidin-4-yloxy)-propoxy]-phenyl}-1H-benzoimidazole]
7.39 | Cc1cc(Cl)cc2[nH]c(-c3ccc(OCCCN4CCN(C)CC4)nc3)nc12 [Example 103, 6-Chloro-4-methyl-2-{6-[3-(4-methyl-piperazin-1-yl)-propoxy]-pyridin-3-yl}-1H-benzoimidazole]
6.58 | Cc1cccc2[nH]c(-c3ccc(OCCCN4CCN(C)CC4)nc3)nc12 [Example 104, 4-Methyl-2-{6-[3-(4-methyl-piperazin-1-yl)-propoxy]-pyridin-3-yl}-1H-benzoimidazole]
7.07 | Cc1c(F)ccc2[nH]c(-c3ccc(OCCCN4CCN(C)CC4)nc3)nc12 [Example 105, 5-Fluoro-4-methyl-2-{6-[3-(4-methyl-piperazin-1-yl)-propoxy]-pyridin-3-yl}-1H-benzoimidazole]
7.92 | Cc1cccc2[nH]c(-c3ccc(OCCCC4CCN(C)CC4)nc3)nc12 [Example 106, 4-Methyl-2-{6-[3-(1-methyl-piperidin-4-yl)-propoxy]-pyridin-3-yl}-1H-benzoimidazole]
7.59 | Cc1ccc2[nH]c(-c3ccc(OCCCC4CCN(C)CC4)nc3)nc2c1C [Example 107, 4,5-Dimethyl-2-{6-[3-(1-methyl-piperidin-4-yl)-propoxy]-pyridin-3-yl}-1H-benzoimidazole]
8.22 | Cc1cc(OCCCC2CCN(C)CC2)ncc1-c1nc2c(C)cc(Cl)cc2[nH]1 [Example 109, 6-Chloro-4-methyl-2-{4-methyl-6-[3-(1-methyl-piperidin-4-yl)-propoxy]-pyridin-3-yl}-1H-benzoimidazole]
8.22 | Cc1cc(OCCCC2CCN(C)CC2)ncc1-c1nc2c(C)c(C)ccc2[nH]1 [Example 112, 4,5-Dimethyl-2-{4-methyl-6-[3-(1-methyl-piperidin-4-yl)-propoxy]-pyridin-3-yl}-1H-benzoimidazole]
8.40 | Cc1cc(C)c2nc(-c3cnc(OCCCC4CCN(C)CC4)cc3C)[nH]c2c1 [Example 113, 4,6-Dimethyl-2-{4-methyl-6-[3-(1-methyl-piperidin-4-yl)-propoxy]-pyridin-3-yl}-1H-benzoimidazole]
7.96 | Cc1cc(OCCCC2CCN(C)CC2)ncc1-c1nc2c(Cl)cccc2[nH]1 [Example 114, 4-Chloro-2-{4-methyl-6-[3-(1-methyl-piperidin-4-yl)-propoxy]-pyridin-3-yl}-1H-benzoimidazole]
7.92 | Cc1cccc2[nH]c(-c3cnc(OCCCC4CCN(C)CC4)cc3Cl)nc12 [Example 116, 2-{4-Chloro-6-[3-(1-methyl-piperidin-4-yl)-propoxy]-pyridin-3-yl}-4-methyl-1H-benzoimidazole]
8.30 | Cc1cc(Cl)cc2[nH]c(-c3cnc(OCCCC4CCN(C)CC4)cc3Cl)nc12 [Example 117, 6-Chloro-2-{4-chloro-6-[3-(1-methyl-piperidin-4-yl)-propoxy]-pyridin-3-yl}-4-methyl-1H-benzoimidazole]
8.40 | Cc1cc(C)c2nc(-c3cnc(OCCCC4CCN(C)CC4)cc3Cl)[nH]c2c1 [Example 118, 2-{4-Chloro-6-[3-(1-methyl-piperidin-4-yl)-propoxy]-pyridin-3-yl}-4,6-dimethyl-1H-benzoimidazole]
7.29 | COc1cc(OCCCC2CCN(C)CC2)ncc1-c1nc2c(C)cccc2[nH]1 [Example 119, 2-{4-Methoxy-6-[3-(1-methyl-piperidin-4-yl)-propoxy]-pyridin-3-yl}-4-methyl-1H-benzoimidazole]
7.03 | COc1cc(OCCCC2CCN(C)CC2)ncc1-c1nc2c(C)c(F)ccc2[nH]1 [Example 120, 5-Fluoro-2-{4-methoxy-6-[3-(1-methyl-piperidin-4-yl)-propoxy]-pyridin-3-yl}-4-methyl-1H-benzoimidazole]
7.22 | Cc1c(F)ccc2[nH]c(-c3ccc(OCCCC4=CCN(C)CC4)nc3)nc12 [Example 121, 5-Fluoro-4-methyl-2-{6-[3-(1-methyl-1,2,3,6-tetrahydro-pyridin-4-yl)-propoxy]-pyridin-3-yl}-1H-benzoimidazole]
7.11 | Cc1cc(C)c2nc(-c3ccc(OCCCC4=CCN(C)CC4)nc3)[nH]c2c1 [Example 125, 4,6-Dimethyl-2-{6-[3-(1-methyl-1,2,3,6-tetrahydro-pyridin-4-yl)-propoxy]-pyridin-3-yl}-1H-benzoimidazole]
6.37 | Cc1c(Cl)ccc2[nH]c(-c3ccc(OCCCC4=CCN(C)CC4)nc3)nc12 [Example 126, 5-Chloro-4-methyl-2-{6-[3-(1-methyl-1,2,3,6-tetrahydro-pyridin-4-yl)-propoxy]-pyridin-3-yl}-1H-benzoimidazole]
